# Experiments:
# P. aeruginosa = experiment: Influence of sucrose on bacterial growth (OD600); format: cell-based, Pseudomonas aeruginosa; conditions: P. aeruginosa recovered in 55% sucrose (w/v), undiluted, 37° C. with shaking
# Protocol: (§1) Influence of sucrose on bacterial growth. To determine the effects of sucrose concentration on bacterial growth, bacteria recovered from positive blood cultures following Method 2 were diluted 1-fold (i.e. undiluted), 2-fold, 5-fold, 10-fold, 20-fold, and 100-fold in fresh CAMHB within a 96-well plate. The CAMHB broth inoculated with a fresh overnight culture was used as a positive control. Following dilution, samples were incubated at 37° C. with shaking, and growth was monitored at 15-min intervals via OD600 measurements using a plate reader (Hidex, Turku, Finland). To further investigate the effects of sucrose on bacterial growth, recovered bacteria-sucrose solutions were diluted 10-fold (optimal dilution factor) and growth was compared to control cultures inoculated with the original blood culture, an overnight culture, or colony resuspension without sucrose exposure. Growth (37° C. with shaking) was monitored via OD600 measurements using a Hidex plate reader.
# (§2) Impact of sucrose on bacterial growth. […] Recovered bacteria within 55% sucrose (w/v) were directly or 2-fold (27.5%), 5-fold (11%), 10-fold (5.5%), 20-fold (2.75%), and 100-fold (0.55%) diluted in CAMHB and growth monitored on a plate reader set at 37° C. with medium shaking. […]
# S. aureus [1] = experiment: Influence of sucrose on bacterial growth (OD600); format: cell-based, Staphylococcus aureus; conditions: S. aureus recovered in 55% sucrose (w/v), undiluted, 37° C. with shaking
# Protocol: as §1, §2
# E. coli = experiment: Influence of sucrose on bacterial growth (OD600); format: cell-based, Escherichia coli; conditions: E. coli recovered in 55% sucrose (w/v), undiluted, 37° C. with shaking
# Protocol: as §1, §2
# S. aureus 78 = experiment: Microbroth dilution MIC with and without sucrose recovery; format: cell-based, Staphylococcus aureus; conditions: MIC given as multiple of S/I/R; for minimum inhibitory concentration (MIC), Standard: S. aureus 78 recovered by standard plating; for minimum inhibitory concentration (MIC), Sucrose: S. aureus 78 recovered through sucrose (Method 2)
# Protocol: (§3) Microbroth dilution for minimum inhibitory concentrations (MIC) with and without sucrose recovery. To isolate bacteria without sucrose, culture media from positive BacT/alert FA PLUS aerobic culture bottles (bioMérieux, Durham, NC) was serially diluted and plated onto LB agar (Lennox; Sigma-Aldrich, St. Louis, MO). Bacterial suspensions were prepared by resuspending colonies in CAMHB with incubation on a MaxQ 4000 incubator shaker (Thermo Fisher Scientific, Waltham, MA) at 37° C. and ˜225 rpm for 3 hours. Bacteria recovered via Method 2 were diluted 10-fold in CAMHB. Following incubation or sucrose recovery and dilution, bacterial suspensions were adjusted to ˜0.004 OD600 with CAMHB and a 50-μL aliquot distributed to each well of a 96-well plate containing CAMHB with and without clinically relevant antibiotics (2-fold dilution series). Gram-negative plates included: ceftazidime (3rd generation cephalosporin, RPI corp., Mount Prospect, IL), cefepime (4th generation cephalosporin, Chem-Impex Int'l, Wood Dale, IL), meropenem (carbapenem, Tokyo Chemical Industry, Tokyo, Japan), levofloxacin (quinolone, Alfa Aesar, Haverhill, MA), and tobramycin (aminoglycoside, MP Biomedicals LLC, Santa Ana, CA), while S. aureus plates contained: oxacillin (beta-lactam, Sigma-Aldrich, St. Louis, MO), vancomycin (glycopeptide, Santa Cruz Biotechnology, Dallas, TX), erythromycin (macrolide, Sigma-Aldrich, St. Louis, MO), clindamycin ([…]), and ciprofloxacin (fluoroquinolone, Sigma-Aldrich, St. Louis, MO). Antibiotic plates were incubated at 37° C. for 16-20 hours (gram-negative) or 35° C. for 24 hours (S. aureus), at which time, plates were removed from the incubator and visually inspected for bacterial growth. The MIC was set at the lowest antibiotic concentration at which no growth was detected.
# (§4) Influence of Sucrose on Bacterial MIC. To rule out the potential effect of sucrose exposure in bacterial antibiotic susceptibility, microbroth dilution studies were performed on bacteria recovered using standard practices (i.e. plating following positive blood culture) and through selective lysis coupled with centrifugation through the sucrose cushion (Method 2).
# S. aureus [2] = experiment: Broth microdilution (BMD) MIC; format: cell-based, Staphylococcus aureus; conditions: for MIC: Staphylococcus aureus
# Protocol: as §3
# S. aureus [3] = experiment: Direct flow cytometric AST (high-throughput flow cytometry, HTFC) of sucrose-recovered bacteria; format: cell-based, Staphylococcus aureus; conditions: for MIC: Staphylococcus aureus
# Protocol: AST workflow using bacteria recovered directly from positive blood culture. A 1-mL aliquot of bacteria recovered using separation method 2 was diluted 10-fold in CAMHB, the OD600 adjusted to ˜0.01, and a 50 μL aliquot distributed into each well of a 96-well plate containing CAMHB with and without ceftazidime, tobramycin, and either meropenem (E. coli and P. aeruginosa) or oxacillin (S. aureus). Following Clinical and Laboratory Standards Institute (CLSI) guidelines^33, 2% sodium chloride (NaCl) was present in wells containing oxacillin to assist in the detection of methicillin-resistant S. aureus (MRSA). […] To account for observed differences in doubling and lag times, E. coli and P. aeruginosa were incubated for 4 hours at 37° C., while S. aureus was incubated for 9 hours at 35° C. After incubation, antibiotic plates were removed from the incubator and directly stored on ice (i.e. no post-processing) until high-throughput flow cytometry (BD LSRFortessa with HTS-system, BD, Franklin Lakes, NJ). No-antibiotic controls and antibiotic-treated samples were handled identically.
# MIC Determination by flow cytometry. Because antibiotic effects are observed in both the position of scatter signatures (morphology changes) and count rates (growth inhibition), a modified count rate, accounting for scatter position, was used to evaluate susceptibility. Briefly, no-antibiotic control populations (triplicate) were pooled, binned, and a convex hull boundary set at 1-standard deviation above the background (not including bins with zero counts) was drawn. […] The overlap ratio, measuring changes in morphology, was then computed by dividing the number of sample events within the no-antibiotic control boundary by the total number of events within the sample. As an increase in count rate attributed to viable bacteria in antibiotic-treated samples is not scientifically meaningful, the fractional overlap was multiplied by the minimum of the control and sample count rates to generate a modified count rate accounting for antibiotic-induced morphological changes. All modified count rates were normalized by the average of the no-antibiotic controls. For automatic MIC determination, normalized count rates corresponding to n (index of predicted MIC), n+1, n+2 were iteratively fit to a linear function with a frameshift of n+1 between iterations (FIGS. 8 and 9). […] A threshold of −0.01 instead of zero was used to mitigate the influence of small fluctuations in normalized count rates on susceptibility determinations.
# E. coli 79 = experiment: Microbroth dilution MIC with and without sucrose recovery; format: cell-based, Escherichia coli; conditions: MIC given as multiple of S/I/R; for minimum inhibitory concentration (MIC), Standard: E. coli 79 recovered by standard plating
# Protocol: as §3, §4
# P. aeruginosa 77 = experiment: as above; format: cell-based, Pseudomonas aeruginosa; conditions: MIC given as multiple of S/I/R
# Protocol: as §3, §4
structure (smiles),measurement,setting,value
"OC[C@H]1O[C@@](CO)(O[C@H]2O[C@H](CO)[C@@H](O)[C@H](O)[C@H]2O)[C@@H](O)[C@@H]1O [sucrose, D (+)-sucrose]",bacterial growth (OD600),P. aeruginosa,inhibiting growth completely
same,bacterial growth (OD600),S. aureus [1],inhibiting growth completely
same,bacterial growth (OD600),E. coli,inhibiting growth completely
"Cc1onc(-c2ccccc2)c1C(=O)N[C@@H]1C(=O)N2[C@@H]1SC(C)(C)[C@@H]2C(=O)O [Oxacillin, oxacillin]","minimum inhibitory concentration (MIC), Standard",S. aureus 78,4R
same,"minimum inhibitory concentration (MIC), Sucrose",S. aureus 78,4R
same,"susceptibility classification, BMD",S. aureus [2]; S. aureus ATCC25923,(MSSA)
same,"susceptibility classification, BMD",S. aureus [2]; S. aureus ATCC29213,(MSSA)
same,"susceptibility classification, BMD",S. aureus [2]; S. aureus ATCC43300,(MRSA)
same,"susceptibility classification, BMD",S. aureus [2]; S. aureus Blood Culture A,(MSSA)
same,"susceptibility classification, BMD",S. aureus [2]; S. aureus Blood Culture B,(MRSA)
same,"susceptibility classification, BMD",S. aureus [2]; S. aureus NRS382,(MRSA)
same,"susceptibility classification, BMD",S. aureus [2]; S. aureus NRS385,(MRSA)
same,MIC,"S. aureus [2]; ATCC25923, read-out: Minimum inhibitory concentration, BMD, S. aureus ATCC25923",0.125 µg/mL
same,MIC,"S. aureus [2]; ATCC29213, read-out: Minimum inhibitory concentration, BMD, S. aureus ATCC29213",0.25 µg/mL
same,MIC,"S. aureus [2]; ATCC43300, read-out: Minimum inhibitory concentration, BMD, S. aureus ATCC43300",16 µg/mL
same,MIC,"S. aureus [2]; S. aureus NRS382, read-out: Minimum inhibitory concentration, BMD",> 16 µg/mL
same,MIC,"S. aureus [2]; S. aureus NRS385, read-out: Minimum inhibitory concentration, BMD",> 16 µg/mL
same,MIC,"S. aureus [2]; read-out: Minimum inhibitory concentration, BMD, S. aureus Blood Culture A",0.125 µg/mL
same,MIC,"S. aureus [2]; read-out: Minimum inhibitory concentration, BMD, S. aureus Blood Culture B",> 16 µg/mL
same,"susceptibility classification, HTFC","S. aureus [3]; S. aureus ATCC25923, oxacillin 9 hours (35° C.)",(MSSA)
same,"susceptibility classification, HTFC","S. aureus [3]; S. aureus ATCC29213, oxacillin 9 hours (35° C.)",(MSSA)
same,"susceptibility classification, HTFC","S. aureus [3]; S. aureus ATCC43300, oxacillin 9 hours (35° C.)",(MRSA)
same,"susceptibility classification, HTFC","S. aureus [3]; S. aureus Blood Culture A, oxacillin 9 hours (35° C.)",(MSSA)
same,"susceptibility classification, HTFC","S. aureus [3]; S. aureus Blood Culture B, oxacillin 9 hours (35° C.)",(MRSA)
same,"susceptibility classification, HTFC","S. aureus [3]; S. aureus NRS382, oxacillin 9 hours (35° C.)",MRSA
same,"susceptibility classification, HTFC","S. aureus [3]; S. aureus NRS385, oxacillin 9 hours (35° C.)",MRSA
same,MIC,"S. aureus [3]; 9 h, read-out: Minimum inhibitory concentration, HTFC, S. aureus Blood Culture A, oxacillin 9 hours (35° C.)",0.125 µg/mL
same,MIC,"S. aureus [3]; 9 h, read-out: Minimum inhibitory concentration, HTFC, S. aureus Blood Culture B, oxacillin 9 hours (35° C.)",4 µg/mL
same,MIC,"S. aureus [3]; ATCC25923, 9 h, read-out: Minimum inhibitory concentration, HTFC, S. aureus ATCC25923, oxacillin 9 hours (35° C.)",0.25 µg/mL
same,MIC,"S. aureus [3]; ATCC29213, 9 h, read-out: Minimum inhibitory concentration, HTFC, S. aureus ATCC29213, oxacillin 9 hours (35° C.)",2 µg/mL
same,MIC,"S. aureus [3]; ATCC43300, 9 h, read-out: Minimum inhibitory concentration, HTFC, S. aureus ATCC43300, oxacillin 9 hours (35° C.)",> 4 µg/mL
same,MIC,"S. aureus [3]; S. aureus NRS382, oxacillin 9 hours (35° C.), read-out: Minimum inhibitory concentration, HTFC",> 4 µg/mL
same,MIC,"S. aureus [3]; S. aureus NRS385, oxacillin 9 hours (35° C.), read-out: Minimum inhibitory concentration, HTFC",> 4 µg/mL
"CN[C@H](CC(C)C)C(=O)N[C@H]1C(=O)N[C@@H](CC(N)=O)C(=O)N[C@H]2C(=O)N[C@H]3C(=O)N[C@H](C(=O)N[C@H](C(=O)O)c4cc(O)cc(O)c4-c4cc3ccc4O)[C@H](O)c3ccc(c(Cl)c3)Oc3cc2cc(c3O[C@@H]2O[C@H](CO)[C@@H](O)[C@H](O)[C@H]2O[C@H]2C[C@](C)(N)[C@H](O)[C@H](C)O2)Oc2ccc(cc2Cl)[C@H]1O [Vancomycin, vancomycin]","minimum inhibitory concentration (MIC), Standard",S. aureus 78,¼S
same,"minimum inhibitory concentration (MIC), Sucrose",S. aureus 78,⅛S
"C[C@H]1COc2c(N3CCN(C)CC3)c(F)cc3c(=O)c(C(=O)O)cn1c23 [Levofloxacin, levofloxacin]","minimum inhibitory concentration (MIC), Standard",E. coli 79,>4R
same,"minimum inhibitory concentration (MIC), Sucrose",E. coli 79; E. coli 79 recovered through sucrose (Method 2),4R
"CO/N=C(\C(=O)N[C@@H]1C(=O)N2C(C(=O)[O-])=C(C[N+]3(C)CCCC3)CS[C@H]12)c1csc(N)n1 [Cefepime, cefepime]","minimum inhibitory concentration (MIC), Standard",E. coli 79,2R
same,"minimum inhibitory concentration (MIC), Standard",P. aeruginosa 77; P. aeruginosa 77 recovered by standard plating,½S
same,"minimum inhibitory concentration (MIC), Sucrose",P. aeruginosa 77; P. aeruginosa 77 recovered through sucrose (Method 2),¼S
"CC[C@H]1OC(=O)[C@H](C)[C@@H](O[C@H]2C[C@@](C)(OC)[C@@H](O)[C@H](C)O2)[C@H](C)[C@@H](O[C@@H]2O[C@H](C)C[C@H](N(C)C)[C@H]2O)[C@](C)(O)C[C@@H](C)C(=O)[C@H](C)[C@@H](O)[C@]1(C)O [Erythromycin, erythromycin]","minimum inhibitory concentration (MIC), Standard",S. aureus 78,4R
same,"minimum inhibitory concentration (MIC), Sucrose",S. aureus 78,2R
"CCC[C@@H]1C[C@@H](C(=O)N[C@@H]([C@H]2O[C@H](SC)[C@H](O)[C@@H](O)[C@H]2O)[C@H](C)Cl)N(C)C1 [Clindamycin, clindamycin]","minimum inhibitory concentration (MIC), Standard",S. aureus 78,4R
same,"minimum inhibitory concentration (MIC), Sucrose",S. aureus 78,4R
